Active and inactive are the calls of the source. No cut-off for these calls is given here.
Key:
Format in all cases: functional, cell-based
CHO [1] = assay: Inhibition of LFn-A1 uptake in CHO cells expressing TEM8 receptor at 100 uM; conditions: Cricetulus griseus
CHO [2] = assay: Blockade of PA-induced toxicity in CHO cells expressing TEM8 assessed as cell viability at 5 uM after 48 hrs; conditions: Cricetulus griseus
CHO [3] = assay: Inhibition of PA-induced apoptosis in CHO cells expressing TEM8 receptor cells at 5 uM after 24 hrs; conditions: Cricetulus griseus
CHO [4] = assay: Inhibition of LFn-Lip uptake in CHO cells expressing TEM8 receptor at 100 uM after 1 hrs; conditions: Cricetulus griseus
Mus musculus = species on record: Mus musculus; assay: Cell viability in mouse RAW264.7 cells by LeTx protection assay
KDR = assay: Protection of SLT-VEGF induced toxicity in 293/KDR cells; conditions: Homo sapiens

NCCCSC[C@H]1O[C@@H]2O[C@H]3[C@H](O)[C@@H](O[C@H]4[C@H](O)[C@@H](O)[C@@H](O[C@H]5[C@H](O)[C@@H](O)[C@@H](O[C@H]6[C@H](O)[C@@H](O)[C@@H](O[C@H]7[C@H](O)[C@@H](O)[C@@H](O[C@H]8[C@H](O)[C@@H](O)[C@@H](OC1[C@H](O)[C@H]2O)O[C@@H]8CSCCCN)O[C@@H]7CSCCCN)O[C@@H]6CSCCCN)O[C@@H]5CSCCCN)O[C@@H]4CSCCCN)[C@@H](O)O[C@@H]3CSCCCN
Activity (CHO [1]): Active | Activity (CHO [2]): Active | Activity (CHO [3]): Active | Activity (CHO [4]): inactive | IC50 (Mus musculus): 7 µM | Activity (KDR): inactive

From ChEMBL document CHEMBL1142152, “Inhibition of anthrax protective antigen outside and inside the cell” (Antimicrob Agents Chemother, 2007)
